Drawing on article PMC2746281 (PLoS ONE, 2009), this text covers IC50 for one compound.

The term IC50 denotes the concentration that gives 50% inhibition.

In one experiment the target is PDGFRβ (Homo sapiens, UniProt P09619). Nature of the experiment: Ba/F3 cell proliferation (WST-1), PDGFRβ. Further details: expressed in transfected cells; host or cells: Ba/F3 (general description of the cell system; not repeated for this kinase). Conditions: Ba/F3 cells expressing the enzyme, read-out: Cell-based assay IC50, PDGFRβ. On the technique in general: Tetrazolium assays rely on reduction of a dye to a coloured formazan, in cell work by metabolically active cells.

For experiment [1], the target named is Fibroblast growth factor receptor 3 (Homo sapiens, UniProt P22607). Nature of the experiment: Ba/F3 cell proliferation (WST-1), FGFR3. Conditions: Ba/F3 cells expressing the enzyme, read-out: Cell-based assay IC50, Fibroblast growth factor receptor 3.
The next experiment deals with T1, Jak1 (Homo sapiens, UniProt P23458).
T1 construct: expressed in transfected cells; host or cells: Ba/F3
Nature of the experiment: Ba/F3 cell proliferation (WST-1), Jak1. The settings on record: Ba/F3 cells expressing the enzyme, read-out: Cell-based assay IC50, Jak1.

In a further experiment the target is T2, c-Fms (Homo sapiens, UniProt P07333).
T2 construct: expressed in transfected cells; host or cells: Ba/F3 (general description; not repeated for this kinase)
As to the kind of experiment: Ba/F3 cell proliferation (WST-1), c-Fms. The settings on record: Ba/F3 cells expressing the enzyme, read-out: Cell-based assay IC50, c-Fms.

A further experiment has as its target Jak2 (Homo sapiens, UniProt O60674). As to the kind of experiment: Recombinant kinase screen (Proqinase), Jak2. It is filed as biochemical. The settings on record: recombinant human enzyme; single experiment, kinase screen by Proqinase.
Another experiment addresses T3, Lyn B (Homo sapiens, UniProt P07948).
T3 construct: Lyn B (2–583; BC059394); 6xHN (N); made in house; host or cells: baculovirus, Sf9 insect cells
Nature of the experiment: Recombinant kinase ELISA assay, Lyn B. It is filed as biochemical. The settings on record: recombinant human enzyme; ELISA-based assay, poly(Glu,Tyr 4:1) substrate. On the procedure: (§1) Full details for the generation of recombinant human KIT intracellular domain and other protein kinases (including Lyn, platelet derived growth factor receptor β, epidermal growth factor receptor, fibroblast growth factor receptor 1, Src, HCK, PYK, FES, Btk, Bmx, c-Ret, c-Fms, Syk, and c-Met) are provided in the Supplemental Methods (see Supporting Information; Methods S1). Experiments on ABL1, Akt1, protein kinase C-α, insulin-like growth factor receptor 1, and Pim1 were carried out by Proqinase (Germany). All other recombinant protein kinases were performed in-house using an enzyme-linked immunoassay; experimental details are provided in the Supplemental Methods (see Supporting Information; Methods S1).
A general note: ELISA stands for enzyme-linked immunosorbent assay.

In the next experiment the target is T4, Jak3 (Homo sapiens, UniProt P52333).
T4 construct: expressed in transfected cells; host or cells: Ba/F3
Nature of the experiment: Ba/F3 cell proliferation (WST-1), Jak3. The settings on record: Ba/F3 cells expressing the enzyme, read-out: Cell-based assay IC50, Jak3.

Another experiment deals with VEGFR1 (Homo sapiens, UniProt P17948). As to the kind of experiment: Recombinant kinase ELISA assay, VEGFR1. The settings on record: recombinant human enzyme; ELISA-based assay, poly(Glu,Tyr 4:1) substrate. It is filed as biochemical. As for the experimental part: as §1
A 96-well microtitre plate (Immulon 2HB; ThermoLifeScience, Finland) was coated overnight with 0.25 mg/ml poly(Glu,Tyr 4:1), rinsed twice with 250 µl of washing buffer (10 mM phosphate-buffered saline [pH 7.4] and 0.05% Tween 20) and dried for 2 hours at room temperature. […] Reactions were initiated upon introduction of the enzyme and terminated with the addition of one reaction volume (50 μl) of 100 mM EDTA per 5 M urea mix. […] The final reaction product was quantified by spectrophotometry at 450 nm.

Molecules are shown by their SMILES. A value given as a limit tells only on which side of the number the result lay.

Sequence of VEGFR1 (P17948 27-1338): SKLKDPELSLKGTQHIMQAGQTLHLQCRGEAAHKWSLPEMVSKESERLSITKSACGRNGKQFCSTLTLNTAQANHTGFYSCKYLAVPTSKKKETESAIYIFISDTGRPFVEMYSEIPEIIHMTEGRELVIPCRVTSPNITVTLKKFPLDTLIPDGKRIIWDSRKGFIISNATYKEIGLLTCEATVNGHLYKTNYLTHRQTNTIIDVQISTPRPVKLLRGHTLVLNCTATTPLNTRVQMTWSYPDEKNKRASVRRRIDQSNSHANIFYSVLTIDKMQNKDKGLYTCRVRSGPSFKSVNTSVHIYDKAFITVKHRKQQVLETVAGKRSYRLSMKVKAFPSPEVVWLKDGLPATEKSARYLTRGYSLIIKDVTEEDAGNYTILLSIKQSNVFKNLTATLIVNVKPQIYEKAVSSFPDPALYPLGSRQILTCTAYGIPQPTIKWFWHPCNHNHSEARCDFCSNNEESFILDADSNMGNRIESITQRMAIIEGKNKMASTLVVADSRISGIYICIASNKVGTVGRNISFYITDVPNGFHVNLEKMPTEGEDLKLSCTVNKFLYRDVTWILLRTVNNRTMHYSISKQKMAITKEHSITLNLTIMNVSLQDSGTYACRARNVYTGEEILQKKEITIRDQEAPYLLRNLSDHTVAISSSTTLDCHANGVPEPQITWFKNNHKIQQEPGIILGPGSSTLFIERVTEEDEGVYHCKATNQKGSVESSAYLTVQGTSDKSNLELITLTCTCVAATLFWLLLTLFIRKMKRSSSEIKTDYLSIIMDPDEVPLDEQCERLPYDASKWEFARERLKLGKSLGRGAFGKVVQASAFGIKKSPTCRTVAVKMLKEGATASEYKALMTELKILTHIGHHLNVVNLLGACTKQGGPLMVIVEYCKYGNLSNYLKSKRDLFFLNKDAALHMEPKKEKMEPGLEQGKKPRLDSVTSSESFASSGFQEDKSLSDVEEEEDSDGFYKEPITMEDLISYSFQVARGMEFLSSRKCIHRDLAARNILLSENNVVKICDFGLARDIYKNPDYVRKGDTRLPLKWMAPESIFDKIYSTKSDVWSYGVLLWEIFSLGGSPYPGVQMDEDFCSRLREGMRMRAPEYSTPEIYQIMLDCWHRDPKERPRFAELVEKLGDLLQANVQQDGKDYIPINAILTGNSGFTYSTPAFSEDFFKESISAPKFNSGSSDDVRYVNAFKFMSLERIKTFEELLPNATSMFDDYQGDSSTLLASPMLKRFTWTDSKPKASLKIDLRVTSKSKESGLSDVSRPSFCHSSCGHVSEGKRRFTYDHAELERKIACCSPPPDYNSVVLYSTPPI
T2 sequence (P07333 20-972): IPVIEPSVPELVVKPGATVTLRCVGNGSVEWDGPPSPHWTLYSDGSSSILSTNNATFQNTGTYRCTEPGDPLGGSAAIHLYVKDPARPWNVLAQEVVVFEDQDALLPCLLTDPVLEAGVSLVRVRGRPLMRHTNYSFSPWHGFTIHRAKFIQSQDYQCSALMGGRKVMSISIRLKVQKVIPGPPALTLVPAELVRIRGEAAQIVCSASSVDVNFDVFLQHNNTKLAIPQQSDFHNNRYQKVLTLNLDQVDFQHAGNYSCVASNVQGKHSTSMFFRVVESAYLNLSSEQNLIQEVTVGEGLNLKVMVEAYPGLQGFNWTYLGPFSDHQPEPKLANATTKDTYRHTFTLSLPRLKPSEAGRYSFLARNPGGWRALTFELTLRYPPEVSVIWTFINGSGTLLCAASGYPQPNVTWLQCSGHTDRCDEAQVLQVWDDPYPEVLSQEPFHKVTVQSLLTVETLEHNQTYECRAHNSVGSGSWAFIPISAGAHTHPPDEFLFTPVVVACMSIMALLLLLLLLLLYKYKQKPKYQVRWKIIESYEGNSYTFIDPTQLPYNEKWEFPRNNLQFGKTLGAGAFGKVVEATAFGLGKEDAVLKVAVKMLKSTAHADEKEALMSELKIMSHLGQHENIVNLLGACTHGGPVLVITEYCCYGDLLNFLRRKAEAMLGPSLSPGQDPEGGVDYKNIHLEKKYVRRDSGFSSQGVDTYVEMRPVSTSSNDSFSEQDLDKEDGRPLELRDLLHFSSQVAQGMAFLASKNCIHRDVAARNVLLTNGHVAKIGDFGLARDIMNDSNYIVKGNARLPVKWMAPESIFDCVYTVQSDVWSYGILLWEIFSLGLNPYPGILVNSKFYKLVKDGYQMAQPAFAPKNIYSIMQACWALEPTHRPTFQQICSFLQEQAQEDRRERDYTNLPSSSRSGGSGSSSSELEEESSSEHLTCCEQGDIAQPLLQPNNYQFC
Sequence of PDGFRβ (P09619 33-1106): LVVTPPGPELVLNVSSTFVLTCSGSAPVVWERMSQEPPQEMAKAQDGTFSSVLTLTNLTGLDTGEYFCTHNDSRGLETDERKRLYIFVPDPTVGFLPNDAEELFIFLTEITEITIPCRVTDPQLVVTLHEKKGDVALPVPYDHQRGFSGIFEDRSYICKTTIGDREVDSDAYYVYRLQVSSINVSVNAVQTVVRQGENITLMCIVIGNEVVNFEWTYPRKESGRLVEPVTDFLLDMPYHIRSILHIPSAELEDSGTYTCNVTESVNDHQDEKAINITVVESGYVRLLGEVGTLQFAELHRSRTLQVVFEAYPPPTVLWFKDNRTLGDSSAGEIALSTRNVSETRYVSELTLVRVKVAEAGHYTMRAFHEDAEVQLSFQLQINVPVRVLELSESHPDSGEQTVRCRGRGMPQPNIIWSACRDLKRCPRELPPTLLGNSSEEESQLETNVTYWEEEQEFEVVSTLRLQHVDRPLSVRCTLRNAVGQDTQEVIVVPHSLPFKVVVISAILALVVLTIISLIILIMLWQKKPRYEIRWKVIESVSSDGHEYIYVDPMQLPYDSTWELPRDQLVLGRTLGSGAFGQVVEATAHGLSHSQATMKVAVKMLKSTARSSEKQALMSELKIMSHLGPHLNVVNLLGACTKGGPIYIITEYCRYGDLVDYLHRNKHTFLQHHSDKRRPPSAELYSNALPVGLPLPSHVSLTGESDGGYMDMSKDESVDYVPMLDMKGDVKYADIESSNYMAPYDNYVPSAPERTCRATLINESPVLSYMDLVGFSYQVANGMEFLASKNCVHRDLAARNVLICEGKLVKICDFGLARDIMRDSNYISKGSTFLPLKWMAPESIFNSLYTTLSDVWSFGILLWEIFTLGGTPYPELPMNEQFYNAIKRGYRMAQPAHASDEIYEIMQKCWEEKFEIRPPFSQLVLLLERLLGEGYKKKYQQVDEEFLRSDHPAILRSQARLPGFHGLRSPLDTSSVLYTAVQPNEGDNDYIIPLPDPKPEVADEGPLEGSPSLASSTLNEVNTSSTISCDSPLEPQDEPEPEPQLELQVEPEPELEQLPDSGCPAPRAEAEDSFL
T4 sequence (P52333 whole entry, species assumed): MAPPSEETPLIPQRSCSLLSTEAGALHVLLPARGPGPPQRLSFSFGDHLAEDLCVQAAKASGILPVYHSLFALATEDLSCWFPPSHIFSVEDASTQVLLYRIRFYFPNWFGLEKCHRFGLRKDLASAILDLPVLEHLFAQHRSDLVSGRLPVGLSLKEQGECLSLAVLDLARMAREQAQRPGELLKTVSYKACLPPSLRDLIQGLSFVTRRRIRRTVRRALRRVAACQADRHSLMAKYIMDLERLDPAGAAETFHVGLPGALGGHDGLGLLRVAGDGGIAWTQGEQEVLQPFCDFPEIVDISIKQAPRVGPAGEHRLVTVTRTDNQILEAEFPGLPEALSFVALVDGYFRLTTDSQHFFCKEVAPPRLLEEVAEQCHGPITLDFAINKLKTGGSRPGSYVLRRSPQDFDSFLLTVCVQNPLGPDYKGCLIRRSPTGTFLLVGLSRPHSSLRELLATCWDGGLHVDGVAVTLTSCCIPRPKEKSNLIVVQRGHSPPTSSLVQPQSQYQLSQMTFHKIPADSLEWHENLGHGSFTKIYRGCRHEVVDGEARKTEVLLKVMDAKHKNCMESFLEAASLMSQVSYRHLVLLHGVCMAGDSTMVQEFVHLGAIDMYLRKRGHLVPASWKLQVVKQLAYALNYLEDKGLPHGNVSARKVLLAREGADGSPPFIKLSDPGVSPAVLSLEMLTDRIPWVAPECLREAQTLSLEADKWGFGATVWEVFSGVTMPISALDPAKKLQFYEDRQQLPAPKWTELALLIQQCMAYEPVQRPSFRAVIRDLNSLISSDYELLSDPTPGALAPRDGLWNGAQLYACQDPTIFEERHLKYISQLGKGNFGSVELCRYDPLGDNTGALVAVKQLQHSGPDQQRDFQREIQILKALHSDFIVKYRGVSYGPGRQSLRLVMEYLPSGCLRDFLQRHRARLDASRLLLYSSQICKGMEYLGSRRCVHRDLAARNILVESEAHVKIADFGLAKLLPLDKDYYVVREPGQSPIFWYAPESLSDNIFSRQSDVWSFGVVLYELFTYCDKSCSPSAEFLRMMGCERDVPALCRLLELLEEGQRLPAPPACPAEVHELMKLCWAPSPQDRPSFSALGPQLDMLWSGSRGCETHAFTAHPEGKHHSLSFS
T3 sequence (P07948 2-491 isoform P07948-2 limits assumed): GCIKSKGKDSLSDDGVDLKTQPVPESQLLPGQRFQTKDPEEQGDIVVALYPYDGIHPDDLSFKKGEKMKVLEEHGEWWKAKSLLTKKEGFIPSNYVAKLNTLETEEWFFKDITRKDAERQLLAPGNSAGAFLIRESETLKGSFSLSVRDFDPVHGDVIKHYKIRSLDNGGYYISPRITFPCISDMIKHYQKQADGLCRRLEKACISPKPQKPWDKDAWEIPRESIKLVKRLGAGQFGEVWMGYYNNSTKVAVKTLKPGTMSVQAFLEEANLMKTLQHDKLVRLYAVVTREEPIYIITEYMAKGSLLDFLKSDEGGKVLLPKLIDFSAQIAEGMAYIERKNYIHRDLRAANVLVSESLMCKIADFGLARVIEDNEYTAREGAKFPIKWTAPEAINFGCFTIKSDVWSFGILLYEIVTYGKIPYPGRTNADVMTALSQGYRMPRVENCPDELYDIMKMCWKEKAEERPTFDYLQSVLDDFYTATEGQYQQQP

`CS(=O)(=O)O.CS(=O)(=O)O.Cc1ccc(NC(=O)c2ccc(CN3CCN(C)CC3)cc2)cc1Nc1nc(-c2cccnc2)cs1` [masitinib, 4-(4-methylpiperazin-1-ylmethyl)-N-[4-methyl-3-(4-pyridin-3ylthiazol-2-ylamino)phenyl]benzamide-mesylate methane sulfonic acid salt]: the IC50 is 0.05 ± 0.02 µM at PDGFRβ; 5.5 ± 2.8 µM in experiment [1]; 8 ± 1.4 µM on Jak1; 1 ± 0.03 µM at c-Fms; > 10 µM at Jak2; 0.51 ± 0.13 µM on Lyn B. For the same compound, the IC50 on Jak3 was 10 ± 0.5 µM; on VEGFR1, > 10 µM.
